The text below walks through data of ChEMBL document CHEMBL1201862, “PubChem BioAssay data set” (2004).

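A five-concentration, 48-hour dose response in 96-well plates underlies each endpoint, interpolated linearly between surrounding concentrations. GI50 marks 50% less growth.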 Activity calls are given as the source filed them. No stated cut-off is given here; in the data, active = GI50 up to about 1.1 µM and inactive = higher. Some results are limits rather than exact numbers.

Among the test systems are SNB-19; CAKI-1; Malme-3M; HCT-15; U-251; SK-MEL-5; PC-3; MOLT-4; SW-620; TK-10; SN12C; LOX IMVI; DU-145; OVCAR-4; SK-OV-3; UACC-257; NCI-H23; M14.
Common to all, as to assay: DTP human tumour cell line panel, 48 h

The GI50 is the concentration that inhibits growth by half. With `CSc1nc(C)c2c(n1)SCC2`, the GI50 with SNB-19 was > 10 µM (inactive); in the experiment on CAKI-1 it was > 10 µM (inactive); in the experiment with Malme-3M, > 10 µM (inactive); in the experiment with HCT-15, over 10 µM; in the experiment on U-251 it was > 10 µM (inactive); in the experiment with SK-MEL-5, > 10 µM (inactive). For the same compound, the GI50 with PC-3, in the experiment on MOLT-4, with SW-620, with TK-10, with SN12C and in the experiment on LOX IMVI was > 10 µM (inactive) in each case. The GI50 in the experiment with DU-145, with OVCAR-4, in the experiment on SK-OV-3, in the experiment with UACC-257, with NCI-H23 and in the experiment with M14 was > 10 µM (inactive) in each case.
With `CCCCCC(O)C1C(=O)OC(C)C(O)/C=C/C=C/C=C/C=C\C=C(\C)C(O)CC(O)CC(O)CC(O)CC(O)CC(O)CC1O` (stereo not drawn), the GI50 in the experiment on SNB-19 was > 50 µM (inactive); with CAKI-1 it was > 50 µM (inactive); in the experiment on Malme-3M, > 50 µM (inactive); in the experiment on HCT-15, over 50 µM; in the experiment with U-251 it was > 50 µM (inactive); with SK-MEL-5, > 50 µM (inactive). In addition, the GI50 in the experiment on PC-3, in the experiment on MOLT-4, in the experiment with SW-620, in the experiment with TK-10, with SN12C and in the experiment with LOX IMVI was > 50 µM (inactive) in each case. For the same compound, the GI50 in the experiment with DU-145 is > 50 µM (inactive); with OVCAR-4, 11.1 µM (inactive); with SK-OV-3, > 50 µM (inactive); in the experiment with UACC-257 it was 34.6 µM (inactive); in the experiment on NCI-H23 it was > 50 µM (inactive); in the experiment on M14 it was > 50 µM (inactive).
Turning to `O=C(Sc1c(-c2ccccc2)c(=O)n(-c2ccccc2)c(=S)n1-c1ccccc1)c1ccccc1`, the GI50 in the experiment on SNB-19 is > 100 µM (inactive); with CAKI-1, > 100 µM (inactive); in the experiment with Malme-3M, > 100 µM (inactive); in the experiment on HCT-15, 60.7 µM; in the experiment with U-251, 79.1 µM (inactive); in the experiment on SK-MEL-5 it was 33.9 µM (inactive). The GI50 is > 100 µM (inactive) in the experiment on PC-3; 19.5 µM (inactive) with MOLT-4; 28.6 µM (inactive) with SW-620; > 100 µM (inactive) with TK-10; > 100 µM (inactive) in the experiment with SN12C; 26.4 µM (inactive) with LOX IMVI. The GI50 in the experiment with DU-145 is > 100 µM (inactive); in the experiment with OVCAR-4, > 100 µM (inactive); with SK-OV-3 it was > 100 µM (inactive); in the experiment on UACC-257, > 100 µM (inactive); in the experiment with NCI-H23, > 100 µM (inactive); in the experiment on M14, 61.1 µM (inactive).
As to `CC(O)C1(CNc2cc(Cl)nc(N)n2)CCCCC1` (stereo not drawn), the GI50 in the experiment on SNB-19 is > 100 µM (inactive); in the experiment on CAKI-1, > 100 µM (inactive); in the experiment on Malme-3M, > 100 µM (inactive); with HCT-15, over 100 µM; in the experiment with U-251, > 100 µM (inactive); with SK-MEL-5, 45.6 µM (inactive). In addition, the GI50 in the experiment on PC-3 was 65.6 µM (inactive); in the experiment with MOLT-4, 35.6 µM (inactive); in the experiment with SW-620, > 100 µM (inactive); in the experiment with TK-10, > 100 µM (inactive); in the experiment on SN12C, 82.6 µM (inactive); in the experiment with LOX IMVI it was 91 µM (inactive). Besides, the GI50 with DU-145 was > 100 µM (inactive); in the experiment on OVCAR-4 it was 37.3 µM (inactive); in the experiment on SK-OV-3, > 100 µM (inactive); in the experiment on UACC-257 it was 84.9 µM (inactive); with NCI-H23, 83.6 µM (inactive); in the experiment on M14 it was > 100 µM (inactive).
As for `CC1=C/C(=N\NC(N)=S)C(C(O)(C(F)(F)F)C(F)(F)F)C(C)(C)C1` (stereo not drawn), the GI50 in the experiment with SNB-19 was > 10 µM (inactive); in the experiment on CAKI-1, > 10 µM (inactive); in the experiment with Malme-3M, > 10 µM (inactive); in the experiment on HCT-15, over 10 µM; in the experiment on U-251, > 10 µM (inactive); in the experiment on SK-MEL-5 it was > 10 µM (inactive). In addition, the GI50 with PC-3, in the experiment with MOLT-4, in the experiment on SW-620, in the experiment with TK-10, in the experiment on SN12C and in the experiment with LOX IMVI was > 10 µM (inactive) each time. The GI50 in the experiment with DU-145, with OVCAR-4, in the experiment with SK-OV-3, with UACC-257, in the experiment on NCI-H23 and in the experiment on M14 was > 10 µM (inactive) each time.
Take `O=C1/C(=C2/CCCN2)C(c2ccc[nH]2)=NN1c1ccccc1`: the GI50 is > 100 µM (inactive) with SNB-19; > 100 µM (inactive) in the experiment with CAKI-1; > 100 µM (inactive) in the experiment with Malme-3M; over 100 µM in the experiment on HCT-15; > 100 µM (inactive) in the experiment on U-251; > 100 µM (inactive) with SK-MEL-5. Also, the GI50 in the experiment with PC-3, in the experiment on MOLT-4, in the experiment with SW-620, in the experiment on TK-10, in the experiment on SN12C and in the experiment with LOX IMVI was > 100 µM (inactive) in each case. The GI50 in the experiment on DU-145, with OVCAR-4, with SK-OV-3, in the experiment with UACC-257, in the experiment with NCI-H23 and in the experiment on M14 was > 100 µM (inactive) each time.
On to `Nc1ncnc2c1ncn2C1OC(C(=O)OCCO)C(O)C1O` (stereo not drawn), for which the GI50 in the experiment with SNB-19 was > 100 µM (inactive); in the experiment with CAKI-1 it was > 100 µM (inactive); with Malme-3M it was > 100 µM (inactive); in the experiment on HCT-15 it was over 100 µM; with U-251, > 100 µM (inactive); with SK-MEL-5, > 100 µM (inactive). Further, the GI50 with PC-3, with MOLT-4, in the experiment on SW-620, with TK-10, in the experiment on SN12C and in the experiment with LOX IMVI was > 100 µM (inactive) in each case. Moreover, the GI50 with DU-145, in the experiment with OVCAR-4, in the experiment on SK-OV-3, in the experiment with UACC-257, in the experiment with NCI-H23 and in the experiment with M14 was > 100 µM (inactive) throughout.
Turning to `O=C1N/C(=N/N=C\c2ccccc2)N/C1=C/c1ccc(Cl)cc1`, the GI50 in the experiment on SNB-19 was 15.6 µM (inactive); in the experiment on CAKI-1 it was 33.2 µM (inactive); in the experiment on Malme-3M it was 20.8 µM (inactive); in the experiment on HCT-15, 15.3 µM; with U-251, 22.8 µM (inactive); in the experiment on SK-MEL-5, 19.3 µM (inactive). Also, the GI50 in the experiment with PC-3 was 18.4 µM (inactive); with MOLT-4 it was 15.5 µM (inactive); in the experiment with SW-620, 30.6 µM (inactive); in the experiment with TK-10 it was 42.3 µM (inactive); in the experiment on SN12C it was 23.2 µM (inactive); in the experiment on LOX IMVI it was 26.1 µM (inactive). Further, the GI50 is 28.6 µM (inactive) in the experiment with DU-145; 12.8 µM (inactive) in the experiment with OVCAR-4; 20.7 µM (inactive) with SK-OV-3; 43 µM (inactive) in the experiment with UACC-257; 19 µM (inactive) in the experiment with NCI-H23; 37.4 µM (inactive) with M14.
Turning to `CCOC(=O)c1ccc2c(=O)n3c(C(=O)OCC)ccc3c(=O)n12`, the GI50 is > 100 µM (inactive) in the experiment with SNB-19; > 100 µM (inactive) with CAKI-1; > 100 µM (inactive) in the experiment with Malme-3M; over 100 µM in the experiment on HCT-15; > 100 µM (inactive) in the experiment on U-251; > 100 µM (inactive) with SK-MEL-5. In addition, the GI50 with PC-3, in the experiment with MOLT-4, in the experiment on SW-620, in the experiment on TK-10, in the experiment with SN12C and in the experiment with LOX IMVI was > 100 µM (inactive) throughout. The GI50 in the experiment with DU-145 is > 100 µM (inactive); in the experiment with OVCAR-4, > 100 µM (inactive); in the experiment with SK-OV-3, 68.2 µM (inactive); in the experiment with UACC-257 it was > 100 µM (inactive); in the experiment with NCI-H23, > 100 µM (inactive); in the experiment on M14, > 100 µM (inactive).
As to `CCCCCOC(=O)c1cc2cc(CCl)ccc2oc1=O`, the GI50 was 18.7 µM (inactive) in the experiment with SNB-19; 1.75 µM (inactive) in the experiment with CAKI-1; 0.274 µM (active) with Malme-3M; 3.69 µM in the experiment on HCT-15; 16.8 µM (inactive) in the experiment on U-251; 2.62 µM (inactive) with SK-MEL-5. Also, the GI50 is 4.07 µM (inactive) with PC-3; 7.33 µM (inactive) with MOLT-4; 12.1 µM (inactive) with SW-620; 0.957 µM (active) with TK-10; 9.59 µM (inactive) in the experiment with SN12C; 14.4 µM (inactive) with LOX IMVI. Also, the GI50 with DU-145 was 3.86 µM (inactive); with OVCAR-4, 4.13 µM (inactive); with SK-OV-3 it was 16.9 µM (inactive); in the experiment with UACC-257, 1.09 µM (active); in the experiment on NCI-H23, 1.5 µM (inactive); in the experiment on M14, 1.51 µM (inactive).
In the case of `CCOC(=O)C1(C/C=C\CBr)CCCCCCC1=O` (stereo not drawn), the GI50 was > 100 µM (inactive) with SNB-19; > 100 µM (inactive) in the experiment with CAKI-1; > 100 µM (inactive) in the experiment with Malme-3M; over 100 µM in the experiment on HCT-15; > 100 µM (inactive) with U-251; > 100 µM (inactive) in the experiment with SK-MEL-5. The GI50 is > 100 µM (inactive) in the experiment on PC-3; > 100 µM (inactive) in the experiment on MOLT-4; > 100 µM (inactive) with SW-620; 91 µM (inactive) with TK-10; > 100 µM (inactive) with SN12C; > 100 µM (inactive) with LOX IMVI. Besides, the GI50 in the experiment with DU-145, with OVCAR-4, in the experiment with SK-OV-3, in the experiment on UACC-257, in the experiment on NCI-H23 and in the experiment on M14 was > 100 µM (inactive) throughout.
